From PubChem BioAssay (NCI)
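Interpolation was linear, between the two tested concentrations surrounding the appropriate level; five concentrations were tested over 48 hours in 96-well plates. Definition used: TGI = concentration required for complete inhibition of growth.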

What was measured:
Assay in all cases: growth of human tumour cells (NCI), 48 h
[1] = test system: SK-OV-3 ovarian
[2] = test system: SK-MEL-2 melanoma
[3] = test system: UACC-62 melanoma
[4] = test system: MDA-N
[5] = test system: SW-620 colon
[6] = test system: MDA-MB-435
[7] = test system: SF-268 CNS
[8] = test system: OVCAR-5 ovarian
[9] = test system: HT29 colon
[10] = test system: RXF 393 renal
[11] = test system: U251 CNS
[12] = test system: SF-295 CNS
[13] = test system: EKVX NSCLC
[14] = test system: ACHN renal
[15] = test system: CCRF-CEM leukemia
[16] = test system: BT-549 breast
[17] = test system: IGROV1 ovarian
[18] = test system: K-562 leukemia
[19] = test system: NCI/ADR-RES ovarian
[20] = test system: A498 renal
[21] = test system: OVCAR-8 ovarian
[22] = test system: UACC-257 melanoma
[23] = test system: HOP-62 NSCLC
[24] = test system: MOLT-4 leukemia
[25] = test system: SK-MEL-28 melanoma
[26] = test system: A549 NSCLC
[27] = test system: HS 578T breast
[28] = test system: SNB-75 CNS
[29] = test system: PC-3 prostate
[30] = test system: NCI-H460 lung
[31] = test system: TK-10 renal
[32] = test system: NCI-H226 lung
[33] = test system: UO-31 renal
[34] = test system: COLO 205 colon
[35] = test system: DU-145 prostate
[36] = test system: NCI-H522 lung
[37] = test system: HL-60(TB) leukemia
[38] = test system: KM12 colon
[39] = test system: HCT-15 colon
[40] = test system: OVCAR-4 ovarian
[41] = test system: T-47D breast
[42] = test system: MALME-3M melanoma
[43] = test system: RPMI-8226 leukemia
[44] = test system: M14 melanoma
[45] = test system: NCI-H23 lung
[46] = test system: SNB-19 CNS
[47] = test system: SN12C renal
[48] = test system: OVCAR-3 ovarian
[49] = test system: HCT-116 colon
[50] = test system: MDA-MB-231 breast
[51] = test system: 786-0 renal
[52] = test system: SF-539 CNS
[53] = test system: MCF7 breast
[54] = test system: CAKI-1 renal
[55] = test system: HOP-92 NSCLC
[56] = test system: LOX IMVI melanoma
[57] = test system: HCC-2998 colon
[58] = test system: SK-MEL-5 melanoma

C=C1C(=O)C2=C[C@H]1C[C@H](O)C(=O)[C@]1(C)CCCC(C)(C)[C@H]1C[C@H]2O
TGI [1]: 25.4 µM | TGI [2]: 20.9 µM | TGI [3]: 3.05 µM | TGI [4]: 4.06 µM | TGI [5]: 1.95 µM | TGI [6]: 10.2 µM | TGI [7]: 13.9 µM | TGI [8]: 3.72 µM | TGI [9]: 2.85 µM | TGI [10]: 1.3 µM | TGI [11]: 2.6 µM | TGI [12]: 20.5 µM | TGI [13]: 3.31 µM | TGI [14]: 1.65 µM | TGI [15]: 0.326 µM | TGI [16]: 5.66 µM | TGI [17]: 12.8 µM | TGI [18]: 0.824 µM | TGI [19]: 3.16 µM | TGI [20]: 3.73 µM | TGI [21]: 5.93 µM | TGI [22]: 4.27 µM | TGI [23]: 25.5 µM | TGI [24]: 10.3 µM | TGI [25]: 3.44 µM | TGI [26]: 2.81 µM | TGI [27]: 8.61 µM | TGI [28]: 17.4 µM | TGI [29]: 3.62 µM | TGI [30]: 8.77 µM | TGI [31]: 2.08 µM | TGI [32]: 23 µM | TGI [33]: 5.27 µM | TGI [34]: 1.85 µM | TGI [35]: 4.04 µM | TGI [36]: 1.41 µM | TGI [37]: 1.03 µM | TGI [38]: 5.78 µM | TGI [39]: 1.96 µM | TGI [40]: 19.2 µM | TGI [41]: 2.36 µM | TGI [42]: 2.05 µM | TGI [43]: 1.02 µM | TGI [44]: 2.85 µM | TGI [45]: 3.15 µM | TGI [46]: 29.8 µM | TGI [47]: 4.07 µM | TGI [48]: 4 µM | TGI [49]: 3 µM | TGI [50]: 2.64 µM | TGI [51]: 2.14 µM | TGI [52]: 2.6 µM | TGI [53]: 1.63 µM | TGI [54]: 2.85 µM | TGI [55]: 3.01 µM | TGI [56]: 2.14 µM

CO/C=C(/C(=O)OC)c1ccccc1Oc1c(F)c(F)c(F)c(F)c1F
TGI [1]: > 100 µM | TGI [2]: 58.1 µM | TGI [3]: 68.5 µM | TGI [4]: > 100 µM | TGI [6]: 77.8 µM | TGI [7]: > 100 µM | TGI [8]: > 100 µM | TGI [9]: > 100 µM | TGI [10]: 63.8 µM | TGI [57]: > 100 µM | TGI [11]: > 100 µM | TGI [12]: > 100 µM | TGI [13]: > 100 µM | TGI [14]: > 100 µM | TGI [15]: 98.5 µM | TGI [16]: > 100 µM | TGI [17]: 97.7 µM | TGI [18]: > 100 µM | TGI [19]: > 100 µM | TGI [20]: 92.9 µM | TGI [21]: > 100 µM | TGI [22]: 82.7 µM | TGI [23]: > 100 µM | TGI [24]: 30.4 µM | TGI [25]: > 100 µM | TGI [26]: > 100 µM | TGI [27]: 86 µM | TGI [29]: > 100 µM | TGI [30]: > 100 µM | TGI [31]: 88.2 µM | TGI [32]: > 100 µM | TGI [33]: > 100 µM | TGI [34]: 35.3 µM | TGI [35]: > 100 µM | TGI [37]: 5.72 µM | TGI [38]: > 100 µM | TGI [39]: > 100 µM | TGI [40]: 85.4 µM | TGI [41]: 73.1 µM | TGI [43]: 41.2 µM | TGI [44]: > 100 µM | TGI [58]: 40.8 µM | TGI [45]: > 100 µM | TGI [46]: > 100 µM | TGI [47]: > 100 µM | TGI [48]: 62.4 µM | TGI [49]: 56 µM | TGI [50]: > 100 µM | TGI [51]: > 100 µM | TGI [52]: > 100 µM | TGI [53]: > 100 µM | TGI [54]: 66.5 µM | TGI [55]: 69.2 µM | TGI [56]: > 100 µM

COC(=O)[C@H](Cc1c[nH]c2ccccc12)NC(=O)OCC1OC(n2cc(C)c(=O)[nH]c2=O)CC1N=[N+]=[N-] (some centres not stated)
TGI [1]: > 100 µM | TGI [2]: > 100 µM | TGI [3]: > 100 µM | TGI [4]: > 100 µM | TGI [5]: > 100 µM | TGI [6]: > 100 µM | TGI [7]: > 100 µM | TGI [8]: > 100 µM | TGI [9]: > 100 µM | TGI [10]: > 100 µM | TGI [57]: > 100 µM | TGI [11]: > 100 µM | TGI [12]: > 100 µM | TGI [13]: > 100 µM | TGI [14]: > 100 µM | TGI [15]: > 100 µM | TGI [16]: > 100 µM | TGI [17]: > 100 µM | TGI [18]: > 100 µM | TGI [19]: > 100 µM | TGI [21]: > 100 µM | TGI [22]: > 100 µM | TGI [23]: > 100 µM | TGI [24]: > 100 µM | TGI [26]: > 100 µM | TGI [27]: > 100 µM | TGI [28]: > 100 µM | TGI [29]: > 100 µM | TGI [30]: > 100 µM | TGI [31]: > 100 µM | TGI [32]: > 100 µM | TGI [33]: > 100 µM | TGI [34]: > 100 µM | TGI [35]: > 100 µM | TGI [36]: > 100 µM | TGI [37]: > 100 µM | TGI [38]: > 100 µM | TGI [39]: > 100 µM | TGI [40]: > 100 µM | TGI [41]: > 100 µM | TGI [42]: > 100 µM | TGI [43]: > 100 µM | TGI [44]: > 100 µM | TGI [58]: > 100 µM | TGI [45]: > 100 µM | TGI [46]: > 100 µM | TGI [47]: > 100 µM | TGI [48]: > 100 µM | TGI [49]: > 100 µM | TGI [50]: > 100 µM | TGI [51]: > 100 µM | TGI [53]: > 100 µM | TGI [54]: > 100 µM | TGI [55]: > 100 µM | TGI [56]: > 100 µM

CO[C@]12C#CC=CC#C[C@@H](O)[C@]3(CCC1)O[C@@]23c1cccc(O)c1
TGI [1]: > 100 µM | TGI [2]: > 100 µM | TGI [3]: > 100 µM | TGI [4]: > 100 µM | TGI [5]: > 100 µM | TGI [6]: > 100 µM | TGI [7]: > 100 µM | TGI [8]: > 100 µM | TGI [10]: > 100 µM | TGI [57]: > 100 µM | TGI [11]: > 100 µM | TGI [12]: > 100 µM | TGI [14]: > 100 µM | TGI [16]: > 100 µM | TGI [18]: > 100 µM | TGI [19]: > 100 µM | TGI [20]: > 100 µM | TGI [21]: > 100 µM | TGI [22]: > 100 µM | TGI [23]: > 100 µM | TGI [24]: > 100 µM | TGI [25]: > 100 µM | TGI [26]: > 100 µM | TGI [27]: > 100 µM | TGI [28]: > 100 µM | TGI [29]: > 100 µM | TGI [30]: > 100 µM | TGI [31]: > 100 µM | TGI [32]: > 100 µM | TGI [33]: > 100 µM | TGI [34]: > 100 µM | TGI [35]: > 100 µM | TGI [38]: > 100 µM | TGI [39]: > 100 µM | TGI [40]: > 100 µM | TGI [41]: > 100 µM | TGI [43]: > 100 µM | TGI [44]: > 100 µM | TGI [45]: > 100 µM | TGI [46]: > 100 µM | TGI [47]: > 100 µM | TGI [48]: > 100 µM | TGI [49]: > 100 µM | TGI [50]: > 100 µM | TGI [51]: > 100 µM | TGI [53]: > 100 µM | TGI [54]: > 100 µM | TGI [56]: > 100 µM

COc1ccccc1C1(c2c(OC(C)C)c(=O)c2=O)SCCCS1
TGI [1]: > 100 µM | TGI [2]: > 100 µM | TGI [3]: > 100 µM | TGI [4]: > 100 µM | TGI [5]: > 100 µM | TGI [6]: > 100 µM | TGI [7]: > 100 µM | TGI [8]: > 100 µM | TGI [9]: > 100 µM | TGI [10]: > 100 µM | TGI [11]: > 100 µM | TGI [12]: > 100 µM | TGI [13]: > 100 µM | TGI [14]: > 100 µM | TGI [15]: > 100 µM | TGI [16]: > 100 µM | TGI [17]: > 100 µM | TGI [19]: > 100 µM | TGI [20]: > 100 µM | TGI [21]: > 100 µM | TGI [22]: > 100 µM | TGI [23]: > 100 µM | TGI [24]: > 100 µM | TGI [25]: > 100 µM | TGI [26]: > 100 µM | TGI [27]: > 100 µM | TGI [28]: > 100 µM | TGI [29]: > 100 µM | TGI [30]: > 100 µM | TGI [31]: > 100 µM | TGI [32]: > 100 µM | TGI [33]: > 100 µM | TGI [34]: > 100 µM | TGI [35]: > 100 µM | TGI [36]: > 100 µM | TGI [37]: > 100 µM | TGI [38]: > 100 µM | TGI [39]: > 100 µM | TGI [40]: > 100 µM | TGI [41]: > 100 µM | TGI [44]: > 100 µM | TGI [58]: > 100 µM | TGI [45]: > 100 µM | TGI [46]: > 100 µM | TGI [47]: > 100 µM | TGI [48]: > 100 µM | TGI [49]: > 100 µM | TGI [50]: > 100 µM | TGI [51]: > 100 µM | TGI [52]: > 100 µM | TGI [53]: > 100 µM | TGI [54]: > 100 µM | TGI [55]: > 100 µM | TGI [56]: > 100 µM
